What was measured:
[1] = target: T1, isolated recombinant JAK1 kinase domain (Homo sapiens, UniProt P23458); assay: JAK1 enzyme assay (Caliper LabChip, Ki); assay type: biochemical; settings: recombinant JAK1 kinase domain, 25 μM ATP
T1 construct: The activity of the isolated recombinant JAK1 and JAK2 kinase domain was measured
Method: (§1) JAK Enzyme Assays were Carried Out as Follows:
(§2) The activity of the isolated recombinant JAK1 and JAK2 kinase domain was measured by monitoring phosphorylation of a peptide derived from JAK3 (Val-Ala-Leu-Val-Asp-Gly-Tyr-Phe-Arg-Leu-Thr-Thr, fluorescently labeled on the N-terminus with 5-carboxyfluorescein) using the Caliper LabChip® technology (Caliper Life Sciences, Hopkinton, Mass.). […] Reactions were incubated at 22° C. in 384-well polypropylene microtiter plates for 30 minutes and then stopped by addition of 25 μL of an EDTA containing solution (100 mM HEPES buffer (pH 7.2), 0.015% Brij-35, 150 mM EDTA), resulting in a final EDTA concentration of 50 mM. After termination of the kinase reaction, the proportion of phosphorylated product was determined as a fraction of total peptide substrate using the Caliper LabChip® 3000 according to the manufacturer's specifications. Ki values were then determined using the Morrison tight binding model (Morrison, J. F., Biochim. Biophys. Acta. 185:269-296 (1969); William, J. W. and Morrison, J. F., Meth. Enzymol., 63:437-467 (1979)) modified for ATP-competitive inhibition [Ki=Ki,app/(1+[ATP]/Km,app)].

[2] = target: T2, isolated recombinant JAK2 kinase domain (Homo sapiens, UniProt O60674); assay: JAK2 enzyme assay (Caliper LabChip, Ki); assay type: biochemical; settings: 25 μM ATP
T2 construct: The activity of the isolated recombinant JAK1 and JAK2 kinase domain was measured
Method: as §1, §2

[3] = test system: JAK1-dependent STAT6 phosphorylation downstream of IL-13 stimulation in BEAS-2B human bronchial epithelial cells; assay: JAK1 pathway assay in BEAS-2B cells (IL-13 stimulated STAT6 phosphorylation, MSD); assay type: cell-based; settings: read-out: P-STAT6 BEAS2B + IL13 IC50
Method: JAK1 Pathway Assay in Cell Lines was Carried Out as Follows:
Inhibitor potency (EC50) was determined in cell-based assays designed to measure JAK1 dependent STAT phosphorylation. As noted above, inhibition of IL-4, IL-13, and IL-9 signaling by blocking the Jak/Stat signaling pathway can alleviate asthmatic symptoms in pre-clinical lung inflammation models (Mathew et al., 2001, J Exp Med 193(9): 1087-1096; Kudlacz et. al., 2008, Eur J. Pharmacol 582(1-3): 154-161).
In one assay approach, TF-1 human erythroleukemia cells obtained from the American Type Culture Collection (ATCC; Manassas, Va.) were used to measure JAK1-dependent STAT6 phosphorylation downstream of IL-13 stimulation. Prior to use in the assays, TF-1 cells were starved of GM-CSF overnight in OptiMEM medium (Life Technologies, Grand Island, N.Y.) supplemented with 0.5% charcoal/dextran stripped fetal bovine serum (FBS), 0.1 mM non-essential amino acids (NEAA), and 1 mM sodium pyruvate. The assays were run in 384-well plates in serum-free OptiMEM medium using 300,000 cells per well. In a second assay approach, BEAS-2B human bronchial epithelial cells obtained from ATCC were plated at 100,000 cells per well of a 96-well plate one day prior to the experiment. The BEAS-2B assay was run in complete growth medium (bronchial epithelial basal medium plus bulletkit; Lonza; Basel, Switzerland).
Test compounds were serially diluted 1:2 in DMSO and then diluted 1:50 in medium just before use. Diluted compounds were added to the cells, for a final DMSO concentration of 0.2%, and incubated for 30 min (for the TF-1 assay) or 1 hr (for the BEAS-2B assay) at 37° C. Then, cells were stimulated with human recombinant cytokine at their respective EC90 concentrations, as previously determined for each individual lot. Cells were stimulated with IL-13 (R&D Systems, Minneapolis, Minn.) for 15 min at 37° C. The TF-1 cell reactions were stopped by the direct addition of 10× lysis buffer (Cell Signaling Technologies, Danvers, Mass.), whereas the BEAS-2B cell incubations were halted by the removal of medium and addition of 1× lysis buffer. The resultant samples were frozen in the plates at −80° C. Compound mediated inhibition of STAT6 phosphorylation was measured in the cell lysates using MesoScale Discovery (MSD) technology (Gaithersburg, Md.). EC50 values were determined as the concentration of compound required for 50% inhibition of STAT phosphorylation relative to that measured for the DMSO control.

T1 sequence (P23458 875-1153 limits assumed): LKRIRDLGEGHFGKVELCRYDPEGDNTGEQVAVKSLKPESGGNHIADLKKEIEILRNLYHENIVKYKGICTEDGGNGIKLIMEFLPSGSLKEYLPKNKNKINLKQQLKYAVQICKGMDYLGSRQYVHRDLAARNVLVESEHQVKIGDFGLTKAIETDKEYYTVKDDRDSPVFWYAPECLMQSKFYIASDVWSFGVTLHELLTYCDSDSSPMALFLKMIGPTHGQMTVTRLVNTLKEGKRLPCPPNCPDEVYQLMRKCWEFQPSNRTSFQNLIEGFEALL
T2 sequence (O60674 849-1124 limits assumed): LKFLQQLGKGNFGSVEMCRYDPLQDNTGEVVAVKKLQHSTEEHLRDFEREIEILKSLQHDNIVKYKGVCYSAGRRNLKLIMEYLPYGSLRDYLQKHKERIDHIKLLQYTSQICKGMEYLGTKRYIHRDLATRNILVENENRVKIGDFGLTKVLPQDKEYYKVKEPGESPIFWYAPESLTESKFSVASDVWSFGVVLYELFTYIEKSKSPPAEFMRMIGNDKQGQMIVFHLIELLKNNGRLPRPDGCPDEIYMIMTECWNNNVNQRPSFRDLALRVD

Ki [1] [pM]	Ki [2] [pM]	Structure (SMILES)	IC50 [3] [pM]
240	390	CSc1ccc(OC(F)F)c(-c2nn(CC(=O)N3CCC(NCC(C)(F)F)CC3)cc2NC(=O)c2cnn3cccnc23)c1 [Example 19, N-[3-[2-(difluoromethoxy)-5-methylsulfanyl-phenyl]-1-[2-[4-(2,2-difluoropropylamino)-1-piperidyl]-2-oxo-ethyl]pyrazol-4-yl]pyrazolo[1,5-a]pyrimidine-3-carboxamide]	7400
200	330	CSc1ccc(OC(F)F)c(-c2nn(CC(=O)N3CCC(NCC(C)(C)C#N)CC3)cc2NC(=O)c2cnn3cccnc23)c1 [Example 20, N-[1-[2-[4-[(2-cyano-2-methyl-propyl)amino]-1-piperidyl]-2-oxo-ethyl]-3-[2-(difluoromethoxy)-5-methylsulfanyl-phenyl]pyrazol-4-yl]pyrazolo[1,5-a]pyrimidine-3-carboxamide]	11000
270	330	CSc1ccc(OC(F)F)c(-c2nn(CC(=O)N3CCN(CCCC#N)CC3)cc2NC(=O)c2cnn3cccnc23)c1 [Example 21, N-[1-[2-[4-(3-cyanopropyl)piperazin-1-yl]-2-oxo-ethyl]-3-[2-(difluoromethoxy)-5-methylsulfanyl-phenyl]pyrazol-4-yl]pyrazolo[1,5-a]pyrimidine-3-carboxamide]	9100
320	620	CSc1ccc(OC(F)F)c(-c2nn(CC(=O)N3CCC(N(C)CC(=O)N4CCC4)CC3)cc2NC(=O)c2cnn3cccnc23)c1 [Example 22, N-[1-[2-[4-[[2-(azetidin-1-yl)-2-oxo-ethyl]-methyl-amino]-1-piperidyl]-2-oxo-ethyl]-3-[2-(difluoromethoxy)-5-methylsulfanyl-phenyl]pyrazol-4-yl]pyrazolo[1,5-a]pyrimidine-3-carboxamide]	130000
240	310	CSc1ccc(OC(F)F)c(-c2nn(CC(=O)N3CCC(N4CCN(C)C(=O)C4)CC3)cc2NC(=O)c2cnn3cccnc23)c1 [Example 23, N-[3-[2-(difluoromethoxy)-5-methylsulfanyl-phenyl]-1-[2-[4-(4-methyl-3-oxo-piperazin-1-yl)-1-piperidyl]-2-oxo-ethyl]pyrazol-4-yl]pyrazolo[1,5-a]pyrimidine-3-carboxamide]	61000
220	320	CSc1ccc(OC(F)F)c(-c2nn(CC(=O)N3CCC(N(C)CC(C)(F)F)CC3)cc2NC(=O)c2cnn3cccnc23)c1 [Example 24, N-[3-[2-(difluoromethoxy)-5-methylsulfanyl-phenyl]-1-[2-[4-[2,2-difluoropropyl(methyl)amino]-1-piperidyl]-2-oxo-ethyl]pyrazol-4-yl]pyrazolo[1,5-a]pyrimidine-3-carboxamide]	4900
310	510	CSc1ccc(OC(F)F)c(-c2nn(CC(=O)N3CCC(CN4CCN(CC(=O)N(C)C)CC4)CC3)cc2NC(=O)c2cnn3cccnc23)c1 [Example 25, N-(3-(2-(difluoromethoxy)-5-(methylthio)phenyl)-1-(2-(4-((4-(2-(dimethylamino)-2-oxoethyl)piperazin-1-yl)methyl)piperidin-1-yl)-2-oxoethyl)-1H-pyrazol-4-yl)pyrazolo[1,5-a]pyrimidine-3-carboxamide]	18000
240	390	CSc1ccc(OC(F)F)c(-c2nn(CC(=O)N3CCC(N(C)CC(C)(C)C#N)CC3)cc2NC(=O)c2cnn3cccnc23)c1 [Example 26, N-[1-[2-[4-[(2-cyano-2-methyl-propyl)-methyl-amino]-1-piperidyl]-2-oxo-ethyl]-3-[2-(difluoromethoxy)-5-methylsulfanyl-phenyl]pyrazol-4-yl]pyrazolo[1,5-a]pyrimidine-3-carboxamide]	12000
230	320	CSc1ccc(OC(F)F)c(-c2nn(CC(=O)N3CCC(N4CCSCC4)CC3)cc2NC(=O)c2cnn3cccnc23)c1 [Example 27, N-[3-[2-(difluoromethoxy)-5-methylsulfanyl-phenyl]-1-[2-oxo-2-(4-thiomorpholino-1-piperidyl)ethyl]pyrazol-4-yl]pyrazolo[1,5-a]pyrimidine-3-carboxamide]	5100
220	260	CNCCn1cc(NC(=O)c2cnn3cccnc23)c(-c2cc(SC)ccc2OC(F)F)n1 [Example 28, N-[3-[2-(difluoromethoxy)-5-methylsulfanyl-phenyl]-1-[2-(methylamino)ethyl]pyrazol-4-yl]pyrazolo[1,5-a]pyrimidine-3-carboxamide]	3000
260	370	CSc1ccc(OC(F)F)c(-c2nn(CC(=O)N3CCC(N(C)CC(C)C#N)CC3)cc2NC(=O)c2cnn3cccnc23)c1 (stereo not drawn) [Example 29, N-[1-[2-[4-[2-cyanopropyl(methyl)amino]-1-piperidyl]-2-oxo-ethyl]-3-[2-(difluoromethoxy)-5-methylsulfanyl-phenyl]pyrazol-4-yl]pyrazolo[1,5-a]pyrimidine-3-carboxamide]	9000
290	380	CSc1ccc(OC(F)F)c(-c2nn(CC(=O)N3CCC(NCC(C)C#N)CC3)cc2NC(=O)c2cnn3cccnc23)c1 (stereo not drawn) [Example 30, N-[1-[2-[4-(2-cyanopropylamino)-1-piperidyl]-2-oxo-ethyl]-3-[2-(difluoromethoxy)-5-methylsulfanyl-phenyl]pyrazol-4-yl]pyrazolo[1,5-a]pyrimidine-3-carboxamide]	8700
190	250	CSc1ccc(OC(F)F)c(-c2nn(CC(=O)N3CCC(N4CCCC(C#N)C4)CC3)cc2NC(=O)c2cnn3cccnc23)c1 (stereo not drawn) [Example 31, N-[1-[2-[4-(3-cyano-1-piperidyl)-1-piperidyl]-2-oxo-ethyl]-3-[2-(difluoromethoxy)-5-methylsulfanyl-phenyl]pyrazol-4-yl]pyrazolo[1,5-a]pyrimidine-3-carboxamide]	8300
230	330	CSc1ccc(OC(F)F)c(-c2nn(CC(=O)N3CCC(N4CCC(C#N)C4)CC3)cc2NC(=O)c2cnn3cccnc23)c1 (stereo not drawn) [Example 32, N-[1-[2-[4-(3-cyanopyrrolidin-1-yl)-1-piperidyl]-2-oxo-ethyl]-3-[2-(difluoromethoxy)-5-methylsulfanyl-phenyl]pyrazol-4-yl]pyrazolo[1,5-a]pyrimidine-3-carboxamide]	11000
380	730	CSc1ccc(OC(F)F)c(-c2nn(CC(=O)N3CCN(CC4CCN(CC(=O)N(C)C)CC4)CC3)cc2NC(=O)c2cnn3cccnc23)c1 [Example 33, N-[3-[2-(difluoromethoxy)-5-methylsulfanyl-phenyl]-1-[2-[4-[[1-[2-(dimethylamino)-2-oxo-ethyl]-4-piperidyl]methyl]piperazin-1-yl]-2-oxo-ethyl]pyrazol-4-yl]pyrazolo[1,5-a]pyrimidine-3-carboxamide]	35000
280	300	CSc1ccc(OC(F)F)c(-c2nn(CC(=O)N3CC4CCN(C)C4C3)cc2NC(=O)c2cnn3cccnc23)c1 (stereo not drawn) [Example 34, N-[3-[2-(difluoromethoxy)-5-methylsulfanyl-phenyl]-1-[2-(1-methyl-2,3,3a,4,6,6a-hexahydropyrrolo[2,3-c]pyrrol-5-yl)-2-oxo-ethyl]pyrazol-4-yl]pyrazolo[1,5-a]pyrimidine-3-carboxamide]	5300

— US20180265515A1 (Genentech, Inc., priority 2015, published 2018)
